Experimental data as given in patent publication US9340522B2, “Pyrazolone-derivatives and their use as PDE-4 inhibitors” (TAKEDA GMBH, priority 2008, dated 2016).
Like-named read-outs stand apart in the source and are kept apart here.

Experiments:
[1] = system: LPS-induced pulmonary inflammation model in rats; assay: LPS-induced pulmonary inflammation model in rats (Method A); assay type: in vivo; conditions: Rattus norvegicus, inhaled or nasal, dosage of 1 mg/kg, intratracheal dry powder insufflation 2 h prior LPS challenge, BALF 16 h after LPS, in comparison to the placebo group
Experimental: Exposure of rats to aerosolized lipopolysaccharide (LPS) causes a pulmonary mainly neutrophilic inflammation, which can be assessed by bronchoalveolar lavage (BAL). LPS-induced pulmonary inflammation models are robust and are commonly used for the evaluation of test compounds modulating the immediate immune response. Phosphodiesterase-4 inhibitors are administered by intratracheal dry powder insufflation 2 h prior nose-only LPS challenge in rats. The antiinflammatory activity of the phosphodiesterase inhibitors is assessed based on pulmonary total leukocyte and neutrophil counts in the bronchoalveolar lavage fluid 16 h after LPS exposure.
Male Sprague Dawley rats weighing 250-300 g are used. Rats are delivered 1 weak prior to the experiments and have free access to water and food.
The test compound in crystalline and micronized state is blended with lactose for inhalation ad 10 mg/kg (Respitose® SV003, DMV International, Netherlands). Respitose® and test compound are transferred to 12 ml tubes and are blended for 10 min. Dilution series are prepared from the this stock blend.
A device consisting of an Abbocath®-T catheter (18G×51 mm), a one-way stop-cock and a 5 ml syringe is used for test compound insufflation. Weighed test compound blends are directly filled in the stop-cocks. Intubation of the rats is guided by sight and is done under a short time halothane anesthesia.
The administered dose of the blended material is 10 mg/kg. The expected material loss in the device is 25%, therefore the weighted dose used is 12.5 mg/kg. One day before the experiment the rat body weights are documented and the mean body weight is used to calculate the administered blend dose per rat. LPS challenged and unchallenged control animals received drug-free Respitose® as placebo. Test compound blends and Respitose are administered 2 h prior LPS challenge.
Conscious and restrained animals are connected to a nose-only exposure system (CR equipment SA, Tannay, Switzerland) and are exposed to the LPS aerosol for 30 min. The LPS-containing aerosol is generated using a compressed air driven medication nebulizer device (OCTURNO Medizintechnik GmbH, Germany). The LPS solution (E. coli, Serotype 055B5, Art.#L2880, Lot#114K4103, Sigma-Aldrich; 0.15 mg/ml, diluted in 0.1% hydroxylamine/PBS) is continuously delivered by a syringe pump (20 ml/h) to the nebulizer device. The aerosol is dispersed and transported to the exposure tower by admixture of compressed air. All rats except negative controls are exposed to LPS.
Sixteen hours after LPS challenge, animals are sacrificed with Trapanal (thiopental, […], 2 ml/rat, i.p.), the final body weights are determined and BALs are performed. For the BAL the trachea is exposed and cannulated, followed by gently lavaging the lungs three times in situ with 4 ml PBS buffer.
Determination of total leukocyte and neutrophil counts in BALF is performed with an automated leukocyte differentiation system (XT-20001V, Sysmex, Norderstedt, Germany).
Suppression of LPS-induced total cell and neutrophil influx into the lungs is calculated in % using the means of the cell counts of each treatment group in relation to the control groups:
Statistical analysis is performed on the primary cell count data using one-way ANOVA and Dunnett's multiple comparison post test vs. positive control. The Grubbs test is used to detect outliers.

[2] = Neutrophil, read-out: reduction of neutrophils
[3] = read-out: reduction of the total cell count

SMILES: COc1ccc(C2=NN(C3CCN(C(=O)c4cccc5ccccc45)CC3)C(=O)C2(C)C)cc1OC [Compound 68, 5-(3,4-Dimethoxyphenyl)-4,4-dimethyl-2-[1-(naphthalen-1-ylcarbonyl)piperidin-4-yl]-2,4-dihydro-3H-pyrazol-3-one]
- inhibition in vivo at 1 mg/kg [1, 2]: 15 to 53%
- inhibition in vivo at 1 mg/kg [1, 3]: 22 to 60%

SMILES: COc1ccc(C2=NN(C3CCN(C(=O)c4cc(O)ccc4F)CC3)C(=O)C2(C)C)cc1OC [Compound 90, 5-(3,4-Dimethoxyphenyl)-2-{1-[(2-fluoro-5-hydroxyphenyl)carbonyl]piperidin-4-yl}-4,4-dimethyl-2,4-dihydro-3H-pyrazol-3-one]
- inhibition in vivo at 1 mg/kg [1, 2]: 15 to 53%
- inhibition in vivo at 1 mg/kg [1, 3]: 22 to 60%

SMILES: COC(=O)c1ccccc1S(=O)(=O)N1CCC(N2N=C(c3ccc(OC)c(OC)c3)C(C)(C)C2=O)CC1 [Compound 2, Methyl 2-({4-[3-(3,4-dimethoxyphenyl)-4,4-dimethyl-5-oxo-4,5-dihydro-1H-pyrazol-1-yl]piperidin-1-yl}sulfonyl)benzoate]
- inhibition in vivo at 1 mg/kg [1, 2]: 15 to 53%
- inhibition in vivo at 1 mg/kg [1, 3]: 22 to 60%

SMILES: COc1ccc(C2=NN(C3CCN(C(=O)c4ccccc4OCC(N)=O)CC3)C(=O)C2(C)C)cc1OC [Compound 97, 2-[2-({4-[3-(3,4-Dimethoxyphenyl)-4,4-dimethyl-5-oxo-4,5-dihydro-1H-pyrazol-1-yl]piperidin-1-yl}carbonyl)phenoxy]acetamide]
- inhibition in vivo at 1 mg/kg [1, 2]: 15 to 53%
- inhibition in vivo at 1 mg/kg [1, 3]: 22 to 60%

SMILES: COc1ccc(C2=NN(C3CCN(C(=O)c4ccccc4O)CC3)C(=O)C2(C)C)cc1OC [Compound 94, 5-(3,4-Dimethoxyphenyl)-2-{1-[(2-hydroxyphenyl)carbonyl]piperidin-4-yl}-4,4-dimethyl-2,4-dihydro-3H-pyrazol-3-one]
- inhibition in vivo at 1 mg/kg [1, 2]: 15 to 53%
- inhibition in vivo at 1 mg/kg [1, 3]: 22 to 60%
- melting point: 212 to 213 °C

SMILES: COC(=O)c1cccc(S(=O)(=O)N2CCC(N3N=C(c4ccc(OC)c(OC)c4)C(C)(C)C3=O)CC2)c1 [Compound 26, Methyl 3-({4-[3-(3,4-dimethoxyphenyl)-4,4-dimethyl-5-oxo-4,5-dihydro-1H-pyrazol-1-yl]piperidin-1-yl}sulfonyl)benzoate]
- melting point: 214 °C

SMILES: COc1ccc(C2=NN(C3CCN(C(=O)c4cccc(Cl)c4)CC3)C(=O)C2(C)C)cc1OC [Compound 69, 2-{1-[(3-Chlorophenyl)carbonyl]piperidin-4-yl}-5-(3,4-dimethoxyphenyl)-4,4-dimethyl-2,4-dihydro-3H-pyrazol-3-one]
- inhibition in vivo at 1 mg/kg [1, 2]: 15 to 53%
- inhibition in vivo at 1 mg/kg [1, 3]: 22 to 60%

SMILES: COc1ccc(C2=NN(C3CCN(S(=O)(=O)c4ccccc4C(F)(F)F)CC3)C(=O)C2(C)C)cc1OC [Compound 18, 5-(3,4-Dimethoxyphenyl)-4,4-dimethyl-2-(1-{[2-(trifluoromethyl)phenyl]sulfonyl}piperidin-4-yl)-2,4-dihydro-3H-pyrazol-3-one]
- inhibition in vivo at 1 mg/kg [1, 2]: 15 to 53%
- inhibition in vivo at 1 mg/kg [1, 3]: 22 to 60%

SMILES: COc1ccc(C2=NN(C3CCN(C(=O)c4cc5ccccc5[nH]4)CC3)C(=O)C2(C)C)cc1OC [Compound 61, 5-(3,4-Dimethoxyphenyl)-2-[1-(1H-indol-2-ylcarbonyl)piperidin-4-yl]-4,4-dimethyl-2,4-dihydro-3H-pyrazol-3-one]
- melting point: 265 °C

SMILES: COc1ccc(C2=NN(C3CCN(C(=O)c4cc(OCc5ccccc5)ccc4C)CC3)C(=O)C2(C)C)cc1OC [Compound 84, 2-(1-{[5-(Benzyloxy)-2-methylphenyl]carbonyl}piperidin-4-yl)-5-(3,4-dimethoxyphenyl)-4,4-dimethyl-2,4-dihydro-3H-pyrazol-3-one]
- inhibition in vivo at 1 mg/kg [1, 2]: 15 to 53%
- inhibition in vivo at 1 mg/kg [1, 3]: 22 to 60%

SMILES: CCOc1cccc(C(=O)N2CCC(N3N=C(c4ccc(OC)c(OC)c4)C(C)(C)C3=O)CC2)c1 [Compound 70, 5-(3,4-Dimethoxyphenyl)-2-{1-[(3-ethoxyphenyl)carbonyl]piperidin-4-yl}-4,4-dimethyl-2,4-dihydro-3H-pyrazol-3-one]
- inhibition in vivo at 1 mg/kg [1, 2]: 15 to 53%
- inhibition in vivo at 1 mg/kg [1, 3]: 22 to 60%
- melting point: 154 to 156 °C

SMILES: COc1ccc(C2=NN(C3CCN(S(=O)(=O)c4cccc(C(=O)O)c4)CC3)C(=O)C2(C)C)cc1OC [Compound 25, 3-({4-[3-(3,4-Dimethoxyphenyl)-4,4-dimethyl-5-oxo-4,5-dihydro-1H-pyrazol-1-yl]piperidin-1-yl}sulfonyl)benzoic acid]
- melting point: 244 °C

SMILES: COc1ccc(C2=NN(C3CCN(S(=O)(=O)c4cccc(C)c4)CC3)C(=O)C2(C)C)cc1OC [Compound 11, 5-(3,4-Dimethoxyphenyl)-4,4-dimethyl-2-{1-[(3-methylphenyl)sulfonyl]piperidin-4-yl}-2,4-dihydro-3H-pyrazol-3-one]
- inhibition in vivo at 1 mg/kg [1, 2]: 15 to 53%
- inhibition in vivo at 1 mg/kg [1, 3]: 22 to 60%

SMILES: COc1ccc(C2=NN(C3CCN(S(=O)(=O)c4ccccc4F)CC3)C(=O)C2(C)C)cc1OC [Compound 14, 5-(3,4-Dimethoxyphenyl)-2-{1-[(2-fluorophenyl)sulfonyl]piperidin-4-yl}-4,4-dimethyl-2,4-dihydro-3H-pyrazol-3-one]
- inhibition in vivo at 1 mg/kg [1, 2]: 15 to 53%
- inhibition in vivo at 1 mg/kg [1, 3]: 22 to 60%

SMILES: COc1ccc(C2=NN(C3CCN(C(=O)c4ccccc4Br)CC3)C(=O)C2(C)C)cc1OC [Compound 72, 2-{1-[(2-Bromophenyl)carbonyl]piperidin-4-yl}-5-(3,4-dimethoxyphenyl)-4,4-dimethyl-2,4-dihydro-3H-pyrazol-3-one]
- inhibition in vivo at 1 mg/kg [1, 2]: 15 to 53%
- inhibition in vivo at 1 mg/kg [1, 3]: 22 to 60%

SMILES: COc1ccc(C2=NN(C3CCN(C(=O)c4cc(O)ccc4C)CC3)C(=O)C2(C)C)cc1OC [Compound 85, 5-(3,4-Dimethoxyphenyl)-2-{1-[(5-hydroxy-2-methylphenyl)carbonyl]piperidin-4-yl}-4,4-dimethyl-2,4-dihydro-3H-pyrazol-3-one]
- inhibition in vivo at 1 mg/kg [1, 2]: 15 to 53%
- inhibition in vivo at 1 mg/kg [1, 3]: 22 to 60%
- melting point: 214 to 215 °C

SMILES: COc1cccc(C(=O)N2CCC(N3N=C(c4ccc(OC)c(OC)c4)C(C)(C)C3=O)CC2)c1 [Compound 65, 5-(3,4-Dimethoxyphenyl)-2-{1-[(3-methoxyphenyl)carbonyl]piperidin-4-yl}-4,4-dimethyl-2,4-dihydro-3H-pyrazol-3-one]
- inhibition in vivo at 1 mg/kg [1, 2]: 15 to 53%
- inhibition in vivo at 1 mg/kg [1, 3]: 22 to 60%

SMILES: COc1cc(C2=NN(C3CCN(S(=O)(=O)c4cccc(C)c4)CC3)C(=O)C2(C)C)cc2c1OC(C)(C)C2 [Compound 32, 5-(7-Methoxy-2,2-dimethyl-2,3-dihydro-1-benzofuran-5-yl)-4,4-dimethyl-2-{1-[(3-methylphenyl)sulfonyl]piperidin-4-yl}-2,4-dihydro-3H-pyrazol-3-one]
- melting point: 183 °C

SMILES: COc1ccc(C2=NN(C3CCN(C(=O)c4ccccc4OC4CCCC4)CC3)C(=O)C2(C)C)cc1OC [Compound 96, 2-(1-{[2-(Cyclopentyloxy)phenyl]carbonyl}piperidin-4-yl)-5-(3,4-dimethoxyphenyl)-4,4-dimethyl-2,4-dihydro-3H-pyrazol-3-one]
- inhibition in vivo at 1 mg/kg [1, 2]: 15 to 53%
- inhibition in vivo at 1 mg/kg [1, 3]: 22 to 60%
- melting point: 176 °C

SMILES: COc1ccc(C2=NN(C3CCN(S(=O)(=O)c4c(C(C)C)cc(C(C)C)cc4C(C)C)CC3)C(=O)C2(C)C)cc1OC [Compound 9, 5-(3,4-Dimethoxyphenyl)-4,4-dimethyl-2-(1-{[2,4,6-tri(propan-2-yl)phenyl]sulfonyl}piperidin-4-yl)-2,4-dihydro-3H-pyrazol-3-one]
- inhibition in vivo at 1 mg/kg [1, 2]: 15 to 53%
- inhibition in vivo at 1 mg/kg [1, 3]: 22 to 60%
